Our source for the IC50 values is BindingDB's records for doi:10.1002/cbic.201402089 (University of Santiago De Compostela, 2014).

A word on the IC50: it is the concentration needed to halve the response being measured. A lower IC50 goes with inhibition by little substance.

Values joined by “and” are separate entries in the source; they are usually repeats but may differ in a detail not shown here. Equal entries are not always repeated.

For this assay, the target named is T1, Kinesin-like protein KIF11 [1-973] (Homo sapiens, UniProt P52732).
T1 construct: 1-973
T1 sequence (P52732 whole entry): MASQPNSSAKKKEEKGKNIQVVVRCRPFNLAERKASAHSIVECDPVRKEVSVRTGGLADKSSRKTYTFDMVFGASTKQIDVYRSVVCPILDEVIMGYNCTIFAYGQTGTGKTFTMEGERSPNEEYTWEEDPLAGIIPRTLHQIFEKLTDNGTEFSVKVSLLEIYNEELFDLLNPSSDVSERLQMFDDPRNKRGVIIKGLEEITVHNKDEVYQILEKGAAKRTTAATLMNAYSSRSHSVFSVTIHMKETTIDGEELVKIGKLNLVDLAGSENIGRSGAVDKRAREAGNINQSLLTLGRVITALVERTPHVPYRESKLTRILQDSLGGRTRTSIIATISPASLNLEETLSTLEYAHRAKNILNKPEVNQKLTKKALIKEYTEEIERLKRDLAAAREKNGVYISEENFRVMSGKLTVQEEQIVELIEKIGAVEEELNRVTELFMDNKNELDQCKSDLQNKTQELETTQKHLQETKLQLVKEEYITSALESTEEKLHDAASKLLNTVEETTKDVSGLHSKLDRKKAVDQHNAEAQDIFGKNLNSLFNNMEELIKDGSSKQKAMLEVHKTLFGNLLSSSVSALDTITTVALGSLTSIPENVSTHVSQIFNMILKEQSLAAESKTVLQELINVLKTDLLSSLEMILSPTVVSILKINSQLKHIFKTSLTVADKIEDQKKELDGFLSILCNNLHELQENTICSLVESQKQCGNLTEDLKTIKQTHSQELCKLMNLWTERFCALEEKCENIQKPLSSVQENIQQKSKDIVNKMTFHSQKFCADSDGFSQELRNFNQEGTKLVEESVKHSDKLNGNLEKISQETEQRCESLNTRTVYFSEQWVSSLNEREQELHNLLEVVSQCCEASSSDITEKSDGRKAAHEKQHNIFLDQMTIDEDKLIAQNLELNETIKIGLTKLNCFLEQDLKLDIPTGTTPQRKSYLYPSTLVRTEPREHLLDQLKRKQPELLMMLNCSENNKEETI
As to the kind of experiment: Microtubule-activated ATPase Kinetic Assay.
As for `CCOC(=O)CNC(=O)C(C1CC1)n1c(C(=O)c2ccccc2)nc2cc(Br)c(Br)cc21` (stereo not drawn) [(−)-Ethyl 2-[2-(2-benzoyl-5,6-dibromo-1H-benzo[d]imidazol-1-yl)-2 cyclopropylacetamido] acetate (Compound 21)], the IC50 was 1.49 µM and 2.52 µM.
`CCCC(C(=O)NCC(=O)OCC)n1c(C(=O)c2ccccc2)nc2cc(Br)c(Br)cc21` (stereo not drawn) [(−)-Ethyl 2-[2-(2-benzoyl-5,6-dibromo-1H-benzo[d]imidazol-1-yl)pentanamido]acetate (Compound 23)]: the half-inhibitory concentration (IC50) was 1.37 µM and 1.72 µM.
In turn, `CCOC(=O)CNC(=O)C(C1CC1)n1c(Cc2ccccc2)nc2cc(Br)c(Br)cc21` (stereo not given) [Ethyl 2-[2-(2-benzyl-5,6-dibromo-1H-benzo[d]imidazol-1-yl)-2-cyclopropylacetamido] acetate (Compound 12)] gave an IC50 of 2.29 µM.
`CCCC(C(=O)NCC(=O)OCC)n1c(Cc2ccccc2)nc2cc(Cl)c(Cl)cc21` (stereo not given) [Ethyl 2-[2-(2-benzyl-5,6-dichloro-1H-benzo[d]imidazol-1-yl)pentanamido] acetate (Compound 9)] showed an IC50 of 1.6 µM.
`CCOC(=O)C1C(C)=NC(=S)NC1c1cccc(O)c1` (stereo not given) [ethyl 4-(3-hydroxyphenyl)-6-methyl-2-sulfanylidene-3,4-dihydro-1H-pyrimidine-5-carboxylate] came in with an IC50 of 6.9 µM.
